The source of these data is paper PMC6352943, “Novel pyrazolo[3,4-d]pyrimidines: design, synthesis, anticancer activity, dual EGFR/ErbB2 receptor tyrosine kinases inhibitory activity, effects on cell cycle profile and caspase-3-mediated apoptosis” (Journal of Enzyme Inhibition and Medicinal Chemistry, 2019).

Common to all, as to test: NCI 60 cell line single dose screen (SRB)
Common to all, as to format: cell-based

The test system of one assay is 786-0. Particulars: Homo sapiens; 786-0 (renal cancer), single dose 10^−5 M, 48 h; read-out: Growth inhibition percentage. On the procedure:
(§1) Anticancer activity screening of the newly synthesised compounds was measured in vitro utilising 60 different human tumour cell lines provided by US National Cancer Institute according to previously reported standard procedure[27–29] as follows: Cells are inoculated into 96-well microtitre plates in 100 ml. After cell inoculation, the microtitre plates are incubated at 37 °C, 5% CO2, 95% air and 100% relative humidity for 24 h prior to addition of experimental compounds. After 24 h, two plates of each cell line are fixed in situ with TCA, to represent a measurement of the cell population for each cell line at the time of drug addition (Tz). Experimental compounds are solubilised in dimethyl sulphoxide at 400-fold the desired final maximum test concentration and stored frozen prior to use. At the time of compound addition, an aliquot of frozen concentrate is thawed and diluted to twice the desired final maximum test concentration with complete medium containing […] gentamicin. Aliquots of […] of the compounds dilutions are added to the appropriate microtitre wells already containing 100 ml of medium, resulting in the required final compound concentration. Following compound addition, the plates are incubated for an additional 48 h at 37 °C, 5% CO2, 95% air, and 100% relative humidity. For adherent cells, the assay is terminated by the addition of cold trichloroacetic acid (TCA). Cells are fixed in situ by the gentle addition of 50 ml of cold 50% (w/v) TCA (final concentration, 10% TCA) and incubated for 60 min at 4 °C. The supernatant is discarded, and the plates are washed five times with tap water and air-dried. Sulphorhodamine B (SRB) solution (100 ml) at 0.4% (w/v) in 1% acetic acid is added to each well, and plates are incubated for 10 min at room temperature. After staining, unbound dye is removed by washing five times with 1% acetic acid and the plates are air-dried. Bound stain is subsequently solubilised with 10 mM trizma base, and the absorbance is read on an automated plate reader at a wavelength of 515 nm. For suspension cells, the methodology is the same except that the assay is terminated by fixing settled cells at the bottom of the wells by gently adding 50 ml of 80% TCA (final concentration, 16% TCA). Using the absorbance measurements [time zero, (Tz), control growth, (C), and test growth in the presence of compound (Ti)], the percentage growth is calculated for each compound. Percentage growth inhibition is calculated as: [(Ti – Tz)/(C – Tz)] x 100 for concentrations for which Ti >/=Tz. [(Ti – Tz)/Tz] x 100 for concentrations for which Ti < Tz.

For a further assay, the system named is A498. Particulars: Homo sapiens; A498 (renal cancer), single dose 10^−5 M, 48 h; read-out: Growth inhibition percentage. On the procedure:
as §1

For a further assay, the system named is A549/ATCC. Particulars: Homo sapiens; A549/ATCC (non-small cell lung cancer), single dose 10^−5 M, 48 h; read-out: Growth inhibition percentage. On the procedure:
as §1

A further assay deals with ACHN. As to conditions: Homo sapiens; ACHN (renal cancer), single dose 10^−5 M, 48 h; read-out: Growth inhibition percentage. On the procedure: as §1
In another assay the test system is DU-145. As to conditions: Homo sapiens; DU-145 (prostate cancer), single dose 10^−5 M, 48 h; read-out: Growth inhibition percentage. Here is the method:
as §1

The subject of a further assay is HCT-116. As to conditions: Homo sapiens; HCT-116 (colon cancer), single dose 10^−5 M, 48 h; read-out: Growth inhibition percentage. On the procedure: as §1
Another assay relates to HL-60(TB). As to conditions: Homo sapiens; HL-60(TB) (leukemia), single dose 10^−5 M, 48 h; read-out: Growth inhibition percentage. Here is the method:
as §1

In another assay the test system is LOX IMVI. Particulars: Homo sapiens; LOX IMVI (melanoma), single dose 10^−5 M, 48 h; read-out: Growth inhibition percentage. Here is the method: as §1
The subject of a further assay is MCF7. As to conditions: Homo sapiens; MCF7 (breast cancer), single dose 10^−5 M, 48 h; read-out: Growth inhibition percentage. Here is the method: as §1
The subject of the next assay is MDA-MB-435. Particulars: Homo sapiens; MDA-MB-435 (melanoma), single dose 10^−5 M, 48 h; read-out: Growth inhibition percentage. On the procedure: as §1
The test system of another assay is NCI-H226. As to conditions: Homo sapiens; NCI-H226 (non-small cell lung cancer), single dose 10^−5 M, 48 h; read-out: Growth inhibition percentage. On the procedure:
as §1

For a further assay, the system named is NCI-H23. As to conditions: Homo sapiens; NCI-H23 (non-small cell lung cancer), single dose 10^−5 M, 48 h; read-out: Growth inhibition percentage. Here is the method:
as §1

A further assay deals with OVCAR-3. As to conditions: Homo sapiens; OVCAR-3 (ovarian cancer), single dose 10^−5 M, 48 h; read-out: Growth inhibition percentage. On the procedure:
as §1

A further assay relates to OVCAR-4. Particulars: Homo sapiens; OVCAR-4 (ovarian cancer), single dose 10^−5 M, 48 h; read-out: Growth inhibition percentage. Here is the method:
as §1

The test system of the next assay is SF-268. Particulars: Homo sapiens; SF-268 (CNS cancer), single dose 10^−5 M, 48 h; read-out: Growth inhibition percentage. On the procedure: as §1
A further assay concerns SF-593. As to conditions: Homo sapiens, SF-593 (CNS cancer), single dose 10^−5 M, 48 h, read-out: Growth inhibition percentage. Here is the method: as §1
Another assay has as its system SK-MEL-2. As to conditions: Homo sapiens; SK-MEL-2 (melanoma), single dose 10^−5 M, 48 h; read-out: Growth inhibition percentage. On the procedure: as §1
The next assay deals with SK-MEL-5. Particulars: Homo sapiens; SK-MEL-5 (melanoma), single dose 10^−5 M, 48 h; read-out: Growth inhibition percentage. Here is the method:
as §1

A further assay has as its system SNB-19. Particulars: Homo sapiens; SNB-19 (CNS cancer), single dose 10^−5 M, 48 h; read-out: Growth inhibition percentage. On the procedure: as §1
For the next assay, the system named is SNB-75. As to conditions: Homo sapiens; SNB-75 (CNS cancer), single dose 10^−5 M, 48 h; read-out: Growth inhibition percentage. Here is the method: as §1
A further assay deals with SR. Particulars: Homo sapiens; SR (leukemia), single dose 10^−5 M, 48 h; read-out: Growth inhibition percentage. Here is the method: as §1

Molecules are shown by their SMILES.

`COc1cc(C=NNc2ncnc3c2c(C)nn3-c2ccc(F)cc2)cc(OC)c1OC` [Compound 10c, 1–(4-Fluorophenyl)-3-methyl-4–(2-(3,4,5-trimethoxybenzylidene)-hydrazinyl)-1H-pyrazolo[3,4-d]pyrimidine]: the inhibition at 10 µM was 1.85% with 786-0; 22% in the assay with A498; -0.67% in the assay with A549/ATCC; 4.01% in the assay on ACHN; -4.94% in the assay with DU-145; 3.15% in the assay on HCT-116. Also, the inhibition at 10 µM is -4.11% with HL-60(TB); 9.33% in the assay with LOX IMVI; 1.96% in the assay on MCF7; -2.02% with MDA-MB-435; 5.82% in the assay with NCI-H226; 14.2% in the assay on NCI-H23. Besides, the inhibition at 10 µM is -0.3% in the assay on OVCAR-3; -8.66% with OVCAR-4; 6.35% with SF-268; 13.2% in the assay with SF-593; -1.74% in the assay on SK-MEL-2; 15.3% in the assay on SK-MEL-5. Besides, the inhibition at 10 µM is -4.87% in the assay on SNB-19, 19.5% with SNB-75 and 13.7% with SR.

`COc1ccc(N2CCN(c3ncnc4c3c(C)nn4-c3ccc(F)cc3)CC2)cc1` [Compound 8d, 1–(4-Fluorophenyl)-4–(4-(4-methoxyphenyl)piperazin-1-yl)-3-methyl-1H-pyrazolo[3,4-d]pyrimidine]: the inhibition at 10 µM with 786-0 was -4.57%; in the assay with A498, -0.85%; in the assay on A549/ATCC, -4.08%; in the assay with ACHN it was -0.34%; in the assay with DU-145, -11.2%; in the assay on HCT-116 it was 7.42%. In addition, the inhibition at 10 µM in the assay on HL-60(TB) is 11.8%; in the assay with LOX IMVI it was 0.28%; with MCF7 it was 1.6%; with MDA-MB-435, -6.1%; in the assay with NCI-H226, 5.22%; with NCI-H23, 9.95%. In addition, the inhibition at 10 µM with OVCAR-3 is -8.47%; in the assay on OVCAR-4 it was -1.77%; in the assay with SF-268 it was -2.9%; with SF-593, 8.43%; with SK-MEL-2, -1.69%; in the assay on SK-MEL-5 it was -1.01%. Further, the inhibition at 10 µM is 2.02% in the assay with SNB-19, 5.93% in the assay with SNB-75 and 8.97% in the assay on SR.

For `Cc1nn(-c2ccc(F)cc2)c2nc(N)nc(N)c12` [Compound 5, 1–(4-Fluorophenyl)-3-methyl-1H-pyrazolo[3,4-d]pyrimidine-4,6-diamine], the inhibition at 10 µM was 2.79% with 786-0; -3.11% in the assay with A498; -1.96% in the assay with A549/ATCC; -3.79% with ACHN; -9.51% in the assay with DU-145; -2.75% in the assay on HCT-116. In addition, the inhibition at 10 µM is 8.85% with HL-60(TB); 2.19% in the assay on LOX IMVI; 0.73% in the assay on MCF7; -7.73% in the assay on MDA-MB-435; -8.08% in the assay on NCI-H226; 11.8% in the assay with NCI-H23. Further, the inhibition at 10 µM in the assay on OVCAR-3 was -12.9%; in the assay with OVCAR-4, 1.28%; with SF-268, -2.3%; in the assay with SF-593 it was 2.81%; in the assay with SK-MEL-2, 3.86%; in the assay with SK-MEL-5, 0.86%. For the same compound, the figures for the inhibition at 10 µM in the assay with SNB-19, with SNB-75 and with SR were -7.94%, 5.33% and -1.68%, respectively.

Regarding `Cc1nn(-c2ccc(F)cc2)c2ncnc(NN)c12` [Compound 9, 1–(4-Fluorophenyl)-4-hydrazinyl-3-methyl-1H-pyrazolo[3,4-d]-pyrimidine], the inhibition at 10 µM is -3.72% in the assay on 786-0; 1.48% in the assay with A498; -5.98% in the assay on A549/ATCC; 2.07% in the assay with ACHN; -0.84% with DU-145; 3.99% in the assay with HCT-116. Moreover, the inhibition at 10 µM in the assay with HL-60(TB) is 11.8%; with LOX IMVI it was 13.3%; in the assay with MCF7, 11.5%; with MDA-MB-435 it was -9.22%; with NCI-H226 it was 15.5%; in the assay on NCI-H23 it was 19.1%. Moreover, the inhibition at 10 µM in the assay on OVCAR-3 is 32.2%; with OVCAR-4, 17.8%; in the assay with SF-268, 25.6%; in the assay on SF-593, -0.7%; in the assay with SK-MEL-2 it was 18.3%; in the assay on SK-MEL-5 it was 3.85%. Moreover, the inhibition at 10 µM was 11.3% in the assay on SNB-19, -0.56% in the assay with SNB-75 and 20.2% with SR.

With `Cc1nn(-c2ccc(F)cc2)c2nc[nH]c(=O)c12` [Compound 3, 1–(4-Fluorophenyl)-3-methyl-1H-pyrazolo[3,4-d]pyrimidin-4(5H)-one], the inhibition at 10 µM in the assay on 786-0 is 1.16%; in the assay with A498, 0.02%; in the assay on A549/ATCC it was -2.93%; in the assay with ACHN, -4.68%; with DU-145, -6.51%; in the assay on HCT-116, -1.64%. Moreover, the inhibition at 10 µM is 6.74% in the assay with HL-60(TB); 2.19% in the assay on LOX IMVI; 2.7% in the assay with MCF7; -7.05% in the assay with MDA-MB-435; -9.27% in the assay on NCI-H226; 4.09% in the assay with NCI-H23. Moreover, the inhibition at 10 µM was -5.82% in the assay on OVCAR-3; -8.19% in the assay with OVCAR-4; -1.71% with SF-268; -0.99% in the assay with SF-593; -5.1% in the assay with SK-MEL-2; 0.31% in the assay on SK-MEL-5. The inhibition at 10 µM in the assay with SNB-19 is -3.69%; with SNB-75, 0.29%; in the assay on SR it was -1.58%.
